A word on the Kd: it is the free concentration of one partner at which half of the binding sites on the other are occupied at equilibrium, for simple one-to-one binding.

From ChEMBL document CHEMBL3991601, “The target landscape of clinical kinase drugs” (Science, 2017) come the findings set out here.

The target in experiment [1] is Myosin light chain kinase, smooth muscle (Homo sapiens, UniProt Q15746).
For experiment [2], the target named is T1, ADP/ATP translocase 3 (Homo sapiens, UniProt P12236).
T1 sequence (P12236 whole entry): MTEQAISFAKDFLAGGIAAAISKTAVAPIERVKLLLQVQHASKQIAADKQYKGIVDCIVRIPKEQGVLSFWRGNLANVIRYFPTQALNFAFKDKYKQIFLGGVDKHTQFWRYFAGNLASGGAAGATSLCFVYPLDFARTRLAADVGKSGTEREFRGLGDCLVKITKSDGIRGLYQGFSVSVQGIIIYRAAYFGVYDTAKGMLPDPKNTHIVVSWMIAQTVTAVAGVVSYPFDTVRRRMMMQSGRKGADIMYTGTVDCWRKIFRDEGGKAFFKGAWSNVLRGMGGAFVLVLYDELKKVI

Experiment [3] concerns the target NADH dehydrogenase [ubiquinone] 1 alpha subcomplex subunit 13 (Homo sapiens, UniProt Q9P0J0).
The target in experiment [4] is STE20-like serine/threonine-protein kinase (Homo sapiens, UniProt Q9H2G2).
Experiment [5] concerns the target T2, Septin-9 (Homo sapiens, UniProt Q9UHD8).
T2 sequence (Q9UHD8 whole entry): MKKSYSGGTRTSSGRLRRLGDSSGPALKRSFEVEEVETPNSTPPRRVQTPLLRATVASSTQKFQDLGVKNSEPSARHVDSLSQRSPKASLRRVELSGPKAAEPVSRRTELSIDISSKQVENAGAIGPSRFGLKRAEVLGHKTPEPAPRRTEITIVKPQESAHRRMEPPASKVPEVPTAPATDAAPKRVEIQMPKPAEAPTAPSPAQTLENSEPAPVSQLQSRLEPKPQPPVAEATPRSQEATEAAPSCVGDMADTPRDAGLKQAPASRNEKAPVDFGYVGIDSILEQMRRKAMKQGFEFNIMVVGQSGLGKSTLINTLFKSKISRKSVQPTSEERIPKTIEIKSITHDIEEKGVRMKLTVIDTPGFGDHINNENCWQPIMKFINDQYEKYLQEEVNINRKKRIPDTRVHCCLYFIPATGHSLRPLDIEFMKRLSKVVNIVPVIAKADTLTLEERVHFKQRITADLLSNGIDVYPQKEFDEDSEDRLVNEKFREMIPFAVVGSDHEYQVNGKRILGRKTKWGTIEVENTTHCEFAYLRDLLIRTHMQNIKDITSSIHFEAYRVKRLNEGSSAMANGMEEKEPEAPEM

Experiment [6] deals with T3, MAP/microtubule affinity-regulating kinase 4 (Homo sapiens, UniProt Q96L34).
T3 sequence (Q96L34 whole entry): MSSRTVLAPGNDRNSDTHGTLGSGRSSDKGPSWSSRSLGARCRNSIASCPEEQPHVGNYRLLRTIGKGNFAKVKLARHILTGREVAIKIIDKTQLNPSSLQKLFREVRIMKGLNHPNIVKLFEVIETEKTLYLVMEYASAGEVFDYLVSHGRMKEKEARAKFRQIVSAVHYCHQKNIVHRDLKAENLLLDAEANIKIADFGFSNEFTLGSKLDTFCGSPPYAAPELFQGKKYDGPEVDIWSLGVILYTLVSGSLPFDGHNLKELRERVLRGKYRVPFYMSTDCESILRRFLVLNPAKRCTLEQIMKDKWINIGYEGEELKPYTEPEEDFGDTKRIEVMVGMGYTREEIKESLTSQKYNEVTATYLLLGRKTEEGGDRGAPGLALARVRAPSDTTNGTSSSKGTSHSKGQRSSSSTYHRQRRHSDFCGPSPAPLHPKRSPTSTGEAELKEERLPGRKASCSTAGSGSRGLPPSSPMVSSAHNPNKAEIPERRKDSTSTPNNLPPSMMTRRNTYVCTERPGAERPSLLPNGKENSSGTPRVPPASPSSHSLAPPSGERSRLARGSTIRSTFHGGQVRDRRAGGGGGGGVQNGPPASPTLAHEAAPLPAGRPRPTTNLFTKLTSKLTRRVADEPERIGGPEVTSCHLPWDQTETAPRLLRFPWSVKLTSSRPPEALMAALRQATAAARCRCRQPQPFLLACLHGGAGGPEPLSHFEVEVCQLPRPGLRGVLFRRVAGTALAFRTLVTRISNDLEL

Experiment [7] has as its target Dual specificity protein kinase CLK2 (Homo sapiens, UniProt P49760).
Experiment [8] addresses Protein-tyrosine kinase 6 (Homo sapiens, UniProt Q13882).
The target of experiment [9] is T4, Serine/threonine-protein kinase ICK (Homo sapiens, UniProt Q9UPZ9).
T4 sequence (Q9UPZ9 whole entry): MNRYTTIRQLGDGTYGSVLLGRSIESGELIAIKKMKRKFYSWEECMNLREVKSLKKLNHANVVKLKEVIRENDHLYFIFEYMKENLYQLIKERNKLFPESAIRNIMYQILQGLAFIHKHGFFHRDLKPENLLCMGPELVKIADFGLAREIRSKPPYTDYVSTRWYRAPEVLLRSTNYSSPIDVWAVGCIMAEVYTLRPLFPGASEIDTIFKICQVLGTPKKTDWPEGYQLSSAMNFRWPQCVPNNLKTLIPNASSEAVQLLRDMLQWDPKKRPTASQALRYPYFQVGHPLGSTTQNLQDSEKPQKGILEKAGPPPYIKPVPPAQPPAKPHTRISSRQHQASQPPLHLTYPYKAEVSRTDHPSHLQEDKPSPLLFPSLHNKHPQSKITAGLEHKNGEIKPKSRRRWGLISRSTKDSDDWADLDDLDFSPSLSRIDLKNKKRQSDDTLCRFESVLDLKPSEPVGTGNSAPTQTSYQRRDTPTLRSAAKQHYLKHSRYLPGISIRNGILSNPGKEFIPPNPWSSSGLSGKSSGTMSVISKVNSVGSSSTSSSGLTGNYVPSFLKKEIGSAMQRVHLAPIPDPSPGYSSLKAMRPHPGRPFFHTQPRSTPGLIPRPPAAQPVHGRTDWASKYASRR

In experiment [10] the target is TGF-beta receptor type-2 (Homo sapiens, UniProt P37173).

Structures are written as SMILES. Active and inactive are the calls of the source. Rule as the data show it, for most assays here: actives have a measured Kd and inactives only a lower limit.
Also: in the data inactive means no Kd found up to 30 µM.

Protein-tyrosine kinase 6, sequence (Q13882 whole entry): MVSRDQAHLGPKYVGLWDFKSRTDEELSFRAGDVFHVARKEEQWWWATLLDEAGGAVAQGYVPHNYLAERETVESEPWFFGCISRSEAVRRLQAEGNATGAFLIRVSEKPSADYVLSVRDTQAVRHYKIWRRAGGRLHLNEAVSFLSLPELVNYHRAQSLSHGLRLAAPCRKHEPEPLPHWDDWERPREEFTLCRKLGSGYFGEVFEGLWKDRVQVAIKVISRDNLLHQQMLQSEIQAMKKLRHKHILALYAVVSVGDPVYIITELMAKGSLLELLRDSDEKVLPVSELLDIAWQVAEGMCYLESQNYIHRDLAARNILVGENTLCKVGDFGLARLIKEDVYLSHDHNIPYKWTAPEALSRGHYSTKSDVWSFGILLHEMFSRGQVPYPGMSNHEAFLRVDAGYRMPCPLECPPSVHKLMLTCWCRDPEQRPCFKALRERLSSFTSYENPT
Myosin light chain kinase, smooth muscle, sequence (Q15746 whole entry): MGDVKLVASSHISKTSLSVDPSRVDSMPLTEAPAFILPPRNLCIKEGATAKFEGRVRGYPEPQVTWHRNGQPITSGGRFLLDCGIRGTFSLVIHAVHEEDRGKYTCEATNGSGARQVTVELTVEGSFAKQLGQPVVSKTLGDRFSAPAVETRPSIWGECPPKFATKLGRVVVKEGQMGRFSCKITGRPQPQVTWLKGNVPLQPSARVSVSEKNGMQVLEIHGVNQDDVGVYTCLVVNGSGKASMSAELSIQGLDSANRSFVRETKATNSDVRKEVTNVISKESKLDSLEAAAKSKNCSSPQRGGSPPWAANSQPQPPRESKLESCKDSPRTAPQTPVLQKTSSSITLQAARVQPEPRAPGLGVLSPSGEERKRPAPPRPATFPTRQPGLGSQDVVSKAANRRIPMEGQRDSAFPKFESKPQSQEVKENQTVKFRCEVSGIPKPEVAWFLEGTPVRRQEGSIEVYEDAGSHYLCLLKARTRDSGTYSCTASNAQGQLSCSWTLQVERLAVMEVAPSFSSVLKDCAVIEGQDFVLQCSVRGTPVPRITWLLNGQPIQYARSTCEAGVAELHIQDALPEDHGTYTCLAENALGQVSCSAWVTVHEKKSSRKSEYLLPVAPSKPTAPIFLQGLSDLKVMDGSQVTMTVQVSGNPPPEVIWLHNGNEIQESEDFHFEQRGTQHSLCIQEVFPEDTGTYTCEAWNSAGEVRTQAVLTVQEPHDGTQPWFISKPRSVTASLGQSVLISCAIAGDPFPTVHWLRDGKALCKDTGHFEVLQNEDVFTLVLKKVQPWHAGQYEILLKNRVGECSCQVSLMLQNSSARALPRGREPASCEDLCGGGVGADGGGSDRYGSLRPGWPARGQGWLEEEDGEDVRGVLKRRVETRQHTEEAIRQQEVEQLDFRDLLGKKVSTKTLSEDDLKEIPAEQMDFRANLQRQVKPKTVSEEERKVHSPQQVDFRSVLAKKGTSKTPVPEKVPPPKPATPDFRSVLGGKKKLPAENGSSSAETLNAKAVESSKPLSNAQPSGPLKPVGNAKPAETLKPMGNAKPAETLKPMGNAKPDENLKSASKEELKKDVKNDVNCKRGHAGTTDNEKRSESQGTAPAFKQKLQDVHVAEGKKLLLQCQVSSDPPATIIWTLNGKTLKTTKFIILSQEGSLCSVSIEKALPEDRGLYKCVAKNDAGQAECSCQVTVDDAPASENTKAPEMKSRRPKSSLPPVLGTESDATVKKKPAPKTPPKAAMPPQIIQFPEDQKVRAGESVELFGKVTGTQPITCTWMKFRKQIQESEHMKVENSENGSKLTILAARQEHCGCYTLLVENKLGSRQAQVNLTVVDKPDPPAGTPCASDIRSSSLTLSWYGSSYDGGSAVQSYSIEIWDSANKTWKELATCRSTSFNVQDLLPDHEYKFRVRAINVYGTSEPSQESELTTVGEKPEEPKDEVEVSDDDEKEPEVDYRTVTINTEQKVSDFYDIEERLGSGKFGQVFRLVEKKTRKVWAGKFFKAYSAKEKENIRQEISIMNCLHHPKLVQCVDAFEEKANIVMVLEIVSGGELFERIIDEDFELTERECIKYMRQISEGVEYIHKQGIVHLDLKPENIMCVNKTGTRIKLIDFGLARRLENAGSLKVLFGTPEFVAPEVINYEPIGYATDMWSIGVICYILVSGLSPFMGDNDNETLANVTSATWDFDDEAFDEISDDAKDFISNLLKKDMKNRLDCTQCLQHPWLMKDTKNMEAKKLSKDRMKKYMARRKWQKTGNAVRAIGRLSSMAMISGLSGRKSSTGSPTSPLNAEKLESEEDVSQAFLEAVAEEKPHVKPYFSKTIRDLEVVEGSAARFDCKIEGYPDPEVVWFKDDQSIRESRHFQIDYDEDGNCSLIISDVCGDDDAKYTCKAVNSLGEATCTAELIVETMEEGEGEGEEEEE
NADH dehydrogenase [ubiquinone] 1 alpha subcomplex subunit 13, sequence (Q9P0J0 whole entry, one chain of several): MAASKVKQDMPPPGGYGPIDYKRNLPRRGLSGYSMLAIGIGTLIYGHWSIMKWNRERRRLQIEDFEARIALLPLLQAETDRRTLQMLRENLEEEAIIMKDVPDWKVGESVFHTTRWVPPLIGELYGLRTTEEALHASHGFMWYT
STE20-like serine/threonine-protein kinase, sequence (Q9H2G2 whole entry): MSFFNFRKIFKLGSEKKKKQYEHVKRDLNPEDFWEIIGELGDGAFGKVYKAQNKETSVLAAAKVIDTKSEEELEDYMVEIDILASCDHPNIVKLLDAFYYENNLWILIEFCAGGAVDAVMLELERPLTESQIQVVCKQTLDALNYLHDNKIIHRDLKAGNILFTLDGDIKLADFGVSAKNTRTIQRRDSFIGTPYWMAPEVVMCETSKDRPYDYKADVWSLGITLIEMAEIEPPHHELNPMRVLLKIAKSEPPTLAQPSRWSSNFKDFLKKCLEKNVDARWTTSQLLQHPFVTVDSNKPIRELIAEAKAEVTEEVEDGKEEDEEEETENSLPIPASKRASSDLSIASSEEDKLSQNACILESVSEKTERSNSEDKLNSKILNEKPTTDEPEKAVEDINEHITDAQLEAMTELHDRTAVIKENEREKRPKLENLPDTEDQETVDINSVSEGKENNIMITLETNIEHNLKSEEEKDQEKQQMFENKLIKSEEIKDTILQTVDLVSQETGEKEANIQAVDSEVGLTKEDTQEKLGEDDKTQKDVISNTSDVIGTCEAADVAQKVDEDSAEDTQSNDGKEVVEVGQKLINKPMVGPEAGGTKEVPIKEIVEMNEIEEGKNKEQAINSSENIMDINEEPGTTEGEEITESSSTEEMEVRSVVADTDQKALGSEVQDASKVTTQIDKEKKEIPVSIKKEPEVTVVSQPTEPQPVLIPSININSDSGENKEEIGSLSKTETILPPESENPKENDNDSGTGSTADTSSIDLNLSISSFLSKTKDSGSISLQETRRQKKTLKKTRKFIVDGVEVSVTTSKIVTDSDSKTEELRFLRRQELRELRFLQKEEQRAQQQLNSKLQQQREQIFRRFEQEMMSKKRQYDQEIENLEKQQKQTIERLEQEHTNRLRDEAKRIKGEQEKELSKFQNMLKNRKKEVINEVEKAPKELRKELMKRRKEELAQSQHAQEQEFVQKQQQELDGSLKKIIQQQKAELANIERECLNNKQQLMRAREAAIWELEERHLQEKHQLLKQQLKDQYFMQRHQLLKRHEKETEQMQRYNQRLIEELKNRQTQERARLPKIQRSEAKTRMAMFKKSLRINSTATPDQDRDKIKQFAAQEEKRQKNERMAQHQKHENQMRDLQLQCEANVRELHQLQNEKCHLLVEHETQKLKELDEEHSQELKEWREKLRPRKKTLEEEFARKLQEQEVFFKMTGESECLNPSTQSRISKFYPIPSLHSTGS
TGF-beta receptor type-2, sequence (P37173 whole entry): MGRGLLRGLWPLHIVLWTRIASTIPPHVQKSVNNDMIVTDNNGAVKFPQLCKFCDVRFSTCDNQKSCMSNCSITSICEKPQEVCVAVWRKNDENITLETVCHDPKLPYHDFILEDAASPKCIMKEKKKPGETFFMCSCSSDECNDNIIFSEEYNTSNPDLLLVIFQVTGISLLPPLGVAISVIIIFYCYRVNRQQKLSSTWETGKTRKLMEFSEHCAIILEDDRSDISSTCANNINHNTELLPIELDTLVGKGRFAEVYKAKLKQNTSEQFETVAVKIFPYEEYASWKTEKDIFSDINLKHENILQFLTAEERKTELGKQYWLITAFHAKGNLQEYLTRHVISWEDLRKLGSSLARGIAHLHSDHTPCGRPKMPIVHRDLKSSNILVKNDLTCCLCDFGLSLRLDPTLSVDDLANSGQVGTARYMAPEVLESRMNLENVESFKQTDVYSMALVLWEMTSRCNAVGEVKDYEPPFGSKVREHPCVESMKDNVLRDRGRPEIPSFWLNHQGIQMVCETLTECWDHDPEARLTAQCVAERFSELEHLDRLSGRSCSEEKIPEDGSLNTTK
Dual specificity protein kinase CLK2, sequence (P49760 whole entry): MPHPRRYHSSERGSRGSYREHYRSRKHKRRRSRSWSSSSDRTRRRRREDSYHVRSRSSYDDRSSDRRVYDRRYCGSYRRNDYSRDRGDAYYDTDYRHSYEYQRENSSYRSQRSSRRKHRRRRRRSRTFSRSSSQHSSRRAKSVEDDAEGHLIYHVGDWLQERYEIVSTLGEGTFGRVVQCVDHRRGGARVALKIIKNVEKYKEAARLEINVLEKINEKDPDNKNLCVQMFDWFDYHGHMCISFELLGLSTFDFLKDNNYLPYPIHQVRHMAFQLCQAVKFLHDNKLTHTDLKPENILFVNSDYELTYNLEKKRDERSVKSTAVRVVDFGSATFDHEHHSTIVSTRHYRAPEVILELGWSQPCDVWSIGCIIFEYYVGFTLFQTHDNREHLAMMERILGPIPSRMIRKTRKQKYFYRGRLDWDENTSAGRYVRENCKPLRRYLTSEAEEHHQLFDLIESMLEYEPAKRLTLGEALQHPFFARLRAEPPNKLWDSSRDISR

On to `CO[C@H]1C[C@@H]2CC[C@@H](C)[C@@](O)(O2)C(=O)C(=O)N2CCCC[C@H]2C(=O)O[C@H]([C@H](C)C[C@@H]2CC[C@@H](OP(C)(C)=O)[C@H](OC)C2)CC(=O)[C@H](C)/C=C(\C)[C@@H](O)[C@@H](OC)C(=O)[C@H](C)C[C@H](C)/C=C/C=C/C=C/1C` [RIDAFOROLIMUS], for which the Kd in [1], in experiment [2], in experiment [3], in [4], in experiment [5] and in experiment [6] was > 30 µM (inactive) throughout. The Kd in experiment [7], in experiment [8], in experiment [9] and in experiment [10] was > 30 µM (inactive) throughout.

On to `N#CC1(c2ccc(NC(=O)c3cccnc3NCc3ccncc3)cc2)CCCC1` [RIVOCERANIB], for which the Kd in experiment [1], in experiment [2], in experiment [3], in experiment [4], in experiment [5] and in [6] was > 30 µM (inactive) in each case. Besides, the Kd in experiment [7], in [8], in [9] and in [10] was > 30 µM (inactive) each time.

As to `O=c1[nH]ccc2cc(OC3CCNCC3)ccc12` [SAR-407899 FREE BASE], the Kd in [1], in experiment [2], in [3], in [4], in [5] and in experiment [6] was > 30 µM (inactive) each time. The Kd in [7], in experiment [8], in experiment [9] and in [10] was > 30 µM (inactive) in each case.

For the compound `Cn1cc(-c2cnn3c(N)c(Br)c([C@@H]4CCCNC4)nc23)cn1` [SCH-900776], the Kd in experiment [1] is > 30 µM (inactive); in [2], > 30 µM (inactive); in [3], > 30 µM (inactive); in experiment [4], 2.08 µM (active); in experiment [5], > 30 µM (inactive); in experiment [6], > 30 µM (inactive). Also, the Kd in experiment [7] was > 30 µM (inactive); in experiment [8], > 30 µM (inactive); in experiment [9] it was > 30 µM (inactive); in experiment [10], 4.72 µM (active).

Take `CO[C@H]1C[C@@H]2CC[C@@H](C)[C@@](O)(O2)C(=O)C(=O)N2CCCC[C@H]2C(=O)O[C@H]([C@H](C)C[C@@H]2CC[C@@H](OC(=O)C(C)(CO)CO)[C@H](OC)C2)CC(=O)[C@H](C)/C=C(\C)[C@@H](O)[C@@H](OC)C(=O)[C@H](C)C[C@H](C)/C=C/C=C/C=C/1C` [TEMSIROLIMUS]: the Kd in experiment [1], in experiment [2], in [3], in experiment [4], in experiment [5] and in [6] was > 30 µM (inactive) each time. For the same compound, the Kd in experiment [7], in experiment [8], in experiment [9] and in experiment [10] was > 30 µM (inactive) in each case.

For `O=C(Cc1ccc(-c2ccc(OCCN3CCOCC3)cc2)cn1)NCc1ccccc1` [TIRBANIBULIN], the Kd in experiment [1], in experiment [2], in experiment [3], in [4], in experiment [5] and in [6] was > 30 µM (inactive) each time. Further, the Kd in experiment [7], in [8], in experiment [9] and in experiment [10] was > 30 µM (inactive) in each case.

Take `O=C1NC(=O)[C@@H](c2cn3c4c(cccc24)CCC3)[C@@H]1c1c[nH]c2ccccc12` [TIVANTINIB]: the Kd in experiment [1], in [2], in experiment [3], in experiment [4], in experiment [5] and in [6] was > 30 µM (inactive) each time. The Kd in experiment [7], in experiment [8], in [9] and in [10] was > 30 µM (inactive) each time.

Regarding `C[C@@H](NC(=O)c1ncnc(N)c1Cl)c1ncc(C(=O)Nc2cc(C(F)(F)F)c(Cl)cn2)s1` [TOVORAFENIB], the Kd in experiment [1] is 4.41 µM; in [2], > 30 µM (inactive); in experiment [3] it was > 30 µM (inactive); in experiment [4] it was > 30 µM (inactive); in experiment [5], > 30 µM (inactive); in [6] it was > 30 µM (inactive). Also, the Kd in [7] was > 30 µM (inactive); in experiment [8], > 30 µM (inactive); in [9], > 30 µM (inactive); in experiment [10], 1.64 µM.

Turning to `CC(C)c1cc(CNc2nc(Nc3cc(C4CC4)[nH]n3)cc(N3CCN(C)CC3)n2)on1` [XL-228], the Kd in [1] is > 30 µM (inactive); in experiment [2], > 30 µM (inactive); in experiment [3] it was > 30 µM (inactive); in [4] it was 0.138 µM (active); in experiment [5], > 30 µM (inactive); in experiment [6], > 30 µM (inactive). In addition, the Kd in experiment [7], in [8], in [9] and in experiment [10] was > 30 µM (inactive) each time.
